Structures are written as SMILES.

For orientation: IC50 means the concentration needed to halve the response being measured. Read a low IC50 as greater potency. One may read the EC50 as the concentration giving half of the maximal effect. High values mean a less potent agent, low ones a more potent agent.

Common to all, as to format: cell-based
The target of assay [1] is T1, human PAC channel (wt-PAC) (Homo sapiens, UniProt Q9H813).
T1 construct: gene PACC1; full-length, homotrimer; pCMV-blank, transiently expressed in PACC1-knockout HEK293T cells; library screen on endogenous PAC of HEK293T cells
T1 sequence (Q9H813 whole entry): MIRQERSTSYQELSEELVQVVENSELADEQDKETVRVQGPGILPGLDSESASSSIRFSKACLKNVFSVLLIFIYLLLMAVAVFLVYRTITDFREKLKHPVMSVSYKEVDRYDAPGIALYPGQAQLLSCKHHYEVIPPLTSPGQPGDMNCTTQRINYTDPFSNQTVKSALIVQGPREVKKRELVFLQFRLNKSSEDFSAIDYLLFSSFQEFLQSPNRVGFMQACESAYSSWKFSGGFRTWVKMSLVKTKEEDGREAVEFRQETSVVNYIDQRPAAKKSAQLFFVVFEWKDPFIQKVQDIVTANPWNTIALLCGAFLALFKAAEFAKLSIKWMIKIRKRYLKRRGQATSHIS
Kind of assay: whole-cell patch clamp, inhibition of proton-evoked current. As to conditions: pH 4.6, open-state pore site (site 2, second site), voltage ramp -70 to +80 mV. Background: In patch-clamp work, channel activity is measured electrically.

Assay [2] has as its target T2, human PAC channel (wt-PAC) (Homo sapiens, UniProt Q9H813, A81C/L309A/P303A/T306A).
T2 construct: gene PACC1; full-length, homotrimer; pCMV-blank, transiently expressed in PACC1-knockout HEK293T cells; library screen on endogenous PAC of HEK293T cells
Kind of assay: whole-cell patch clamp, inhibition of current.

The target in assay [3] is T3, human PAC channel (wt-PAC) (Homo sapiens, UniProt Q9H813, F196A).
T3 construct: gene PACC1; full-length, homotrimer; pCMV-blank, transiently expressed in PACC1-knockout HEK293T cells; library screen on endogenous PAC of HEK293T cells
T3 sequence (Q9H813 whole entry F196A): as the sequence (Q9H813 whole entry) above, with F196A counted along it
Kind of assay: whole-cell patch clamp, inhibition of current.

The target of assay [4] is T4, human PAC channel (wt-PAC) (Homo sapiens, UniProt Q9H813, A321C).
T4 construct: gene PACC1; full-length, homotrimer; pCMV-blank, transiently expressed in PACC1-knockout HEK293T cells; library screen on endogenous PAC of HEK293T cells
T4 sequence (Q9H813 whole entry A321C): as the sequence (Q9H813 whole entry) above, with A321C counted along it
Kind of assay: whole-cell patch clamp, activation of current.

The target of assay [5] is T4, human PAC channel (wt-PAC). Kind of assay: whole-cell patch clamp, inhibition of basal current.
Assay [6] deals with T5, human PAC channel (wt-PAC) (Homo sapiens, UniProt Q9H813, F196A/R237A).
T5 construct: gene PACC1; full-length, homotrimer; pCMV-blank, transiently expressed in PACC1-knockout HEK293T cells; library screen on endogenous PAC of HEK293T cells
T5 sequence (Q9H813 whole entry F196A/R237A): as the sequence (Q9H813 whole entry) above, with F196A, R237A counted along it
Kind of assay: whole-cell patch clamp, inhibition of current.

Assay [7] concerns the target T6, human PAC channel (wt-PAC) (Homo sapiens, UniProt Q9H813, R237A).
T6 construct: gene PACC1; full-length, homotrimer; pCMV-blank, transiently expressed in PACC1-knockout HEK293T cells; library screen on endogenous PAC of HEK293T cells
Description: whole-cell patch clamp, effect of […] compound on current. As to conditions: root pH of the mutant; inhibited, not activated.

Assay [8] addresses T1, human PAC channel (wt-PAC). Kind of assay: whole-cell patch clamp, activation of proton-evoked current.
For assay [9], the target named is T7, human PAC channel (wt-PAC) (Homo sapiens, UniProt Q9H813, P303A/T306A/L309A).
T7 construct: gene PACC1; full-length, homotrimer; pCMV-blank, transiently expressed in PACC1-knockout HEK293T cells; library screen on endogenous PAC of HEK293T cells
T7 sequence (Q9H813 whole entry P303A/T306A/L309A): as the sequence (Q9H813 whole entry) above, with P303A, T306A, L309A counted along it
Description: whole-cell patch clamp, activation of current. As to conditions: pH 5.34; activation (site 1).

Assay [10] deals with T8, human PAC channel (wt-PAC) (Homo sapiens, UniProt Q9H813, A81C).
T8 construct: gene PACC1; full-length, homotrimer; pCMV-blank, transiently expressed in PACC1-knockout HEK293T cells; library screen on endogenous PAC of HEK293T cells
T8 sequence (Q9H813 whole entry A81C): as the sequence (Q9H813 whole entry) above, with A81C counted along it
Kind of assay: whole-cell patch clamp, inhibition of current.

T2 sequence (Q9H813 whole entry A81C/P303A/T306A/L309A): as the sequence (Q9H813 whole entry) above, with A81C, P303A, T306A, L309A counted along it
T6 sequence (Q9H813 whole entry R237A): as the sequence (Q9H813 whole entry) above, with R237A counted along it

Consider `Cc1occc1C(=O)Nc1ccc(I)cc1C(=O)O` [C77304, 5–iodo–2–(2–methylfuran–3–carboxamido)benzoicacid], for which the IC50 was 8.3 ± 1.0 µM in assay [1]; ~200 µM in assay [2]; 3 ± 0.5 µM in [3]; 11.8 ± 1.9 µM in [5]; 5.7 ± 0.9 µM in assay [6]; 18.3 ± 3 µM in [10]. For the same compound, the EC50 in assay [4] turned out to be 1 ± 0.4 µM; in assay [8] it was 0.6 ± 0.2 µM. In addition, the “whole-cell patch clamp, effect of 5 μM compound on current” value in assay [7] is listed as “currents mediated by the PAC/R237A mutant, but not any others, were significantly inhibited”. For the same compound, the “whole-cell patch clamp, activation of current” value in assay [9] is “the P303A/T306A/L309A mutations did not affect the activation effect of C77304 on the channel”.

The record behind these values is paper PMC10529583, “A new polymodal gating model of the proton-activated chloride channel” (PLOS Biology, 2023).
